The source of these data is patent US20130035326A1 (AMBIT BIOSCIENCES CORPORATION, priority 2009, published 2013).

What is called Kd is a measure of binding affinity in units of concentration. The low end stands for tighter binding, the high end for weaker binding. As a reminder, the IC50 is the point on the concentration scale where inhibition reaches its midpoint. A lower IC50 goes with higher potency.

Values joined by “and” are separate entries in the source; they are usually repeats but may differ in a detail not shown here. Equal entries are not always repeated.

In one test the target is T1, FLT3 kinase (Homo sapiens, UniProt P36888).
T1 construct: made in house; host or cells: T7 phage display or HEK-293 cells
T1 sequence (P36888 27-993): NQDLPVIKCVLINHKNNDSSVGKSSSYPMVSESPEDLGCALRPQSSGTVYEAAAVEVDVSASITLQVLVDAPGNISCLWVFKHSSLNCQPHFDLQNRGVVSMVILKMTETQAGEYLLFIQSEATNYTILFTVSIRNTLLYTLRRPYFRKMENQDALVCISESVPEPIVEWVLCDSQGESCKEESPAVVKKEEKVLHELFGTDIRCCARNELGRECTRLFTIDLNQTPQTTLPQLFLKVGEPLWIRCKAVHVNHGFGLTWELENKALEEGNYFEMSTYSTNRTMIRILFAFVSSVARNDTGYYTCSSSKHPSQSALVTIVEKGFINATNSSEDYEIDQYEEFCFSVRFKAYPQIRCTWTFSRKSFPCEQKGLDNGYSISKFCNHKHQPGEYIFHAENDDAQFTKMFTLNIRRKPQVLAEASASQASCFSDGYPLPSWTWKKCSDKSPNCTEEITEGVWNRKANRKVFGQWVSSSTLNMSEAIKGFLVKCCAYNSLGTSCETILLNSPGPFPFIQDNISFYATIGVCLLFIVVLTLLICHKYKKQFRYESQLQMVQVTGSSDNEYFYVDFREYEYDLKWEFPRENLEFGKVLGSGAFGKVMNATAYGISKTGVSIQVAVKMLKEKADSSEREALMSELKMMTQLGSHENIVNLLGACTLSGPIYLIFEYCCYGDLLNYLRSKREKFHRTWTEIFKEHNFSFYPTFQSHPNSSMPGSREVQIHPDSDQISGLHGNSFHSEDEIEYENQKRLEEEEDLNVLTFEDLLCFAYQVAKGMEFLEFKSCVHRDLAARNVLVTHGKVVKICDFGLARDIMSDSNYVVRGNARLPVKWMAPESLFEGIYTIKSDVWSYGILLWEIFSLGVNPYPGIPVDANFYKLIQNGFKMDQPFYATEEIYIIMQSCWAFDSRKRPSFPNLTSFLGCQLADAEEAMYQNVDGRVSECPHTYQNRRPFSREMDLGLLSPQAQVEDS
Kind of test: Competition binding assay, FLT3 Kd. In short, it runs like this: (§1)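 Equilibrium Kd measured by competition against immobilized ligand; kinase as T7 phage fusion or HEK-293 DNA-tagged protein; 1 h RT; qPCR read-out of eluate.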

The target in a further test is T2, KIT kinase (Homo sapiens, UniProt P10721).
T2 construct: made in house; host or cells: T7 phage display or HEK-293 cells
T2 sequence (P10721 26-976): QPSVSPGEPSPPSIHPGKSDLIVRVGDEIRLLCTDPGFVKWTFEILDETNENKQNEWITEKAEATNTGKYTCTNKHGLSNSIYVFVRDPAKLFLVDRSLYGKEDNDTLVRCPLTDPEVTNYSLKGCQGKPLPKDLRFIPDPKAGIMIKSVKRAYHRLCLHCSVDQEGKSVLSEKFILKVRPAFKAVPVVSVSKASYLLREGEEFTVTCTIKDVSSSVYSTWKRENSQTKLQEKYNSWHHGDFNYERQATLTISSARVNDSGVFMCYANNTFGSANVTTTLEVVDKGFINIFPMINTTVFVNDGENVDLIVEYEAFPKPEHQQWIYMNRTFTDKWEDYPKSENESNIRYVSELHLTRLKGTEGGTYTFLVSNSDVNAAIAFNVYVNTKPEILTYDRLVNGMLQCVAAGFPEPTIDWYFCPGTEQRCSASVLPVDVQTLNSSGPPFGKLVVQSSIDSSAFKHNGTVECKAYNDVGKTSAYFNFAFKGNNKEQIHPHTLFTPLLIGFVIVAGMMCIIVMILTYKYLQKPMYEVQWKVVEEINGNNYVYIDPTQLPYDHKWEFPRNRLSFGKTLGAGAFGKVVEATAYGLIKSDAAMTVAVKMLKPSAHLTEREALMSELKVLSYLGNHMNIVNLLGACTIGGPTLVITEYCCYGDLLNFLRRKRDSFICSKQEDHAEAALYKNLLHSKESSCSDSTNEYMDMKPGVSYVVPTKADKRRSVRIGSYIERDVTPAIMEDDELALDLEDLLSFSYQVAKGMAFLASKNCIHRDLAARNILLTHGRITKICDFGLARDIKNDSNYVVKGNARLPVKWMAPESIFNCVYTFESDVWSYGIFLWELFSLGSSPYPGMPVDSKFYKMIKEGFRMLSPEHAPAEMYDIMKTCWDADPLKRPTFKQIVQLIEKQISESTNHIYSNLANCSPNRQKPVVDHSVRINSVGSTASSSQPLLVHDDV
Nature of the test: Competition binding assay, KIT Kd. In short, it runs like this: as §1

In the next test the target is T3, CSF-1R kinase (Homo sapiens, UniProt P07333).
T3 construct: made in house; host or cells: T7 phage display or HEK-293 cells
T3 sequence (P07333 20-972): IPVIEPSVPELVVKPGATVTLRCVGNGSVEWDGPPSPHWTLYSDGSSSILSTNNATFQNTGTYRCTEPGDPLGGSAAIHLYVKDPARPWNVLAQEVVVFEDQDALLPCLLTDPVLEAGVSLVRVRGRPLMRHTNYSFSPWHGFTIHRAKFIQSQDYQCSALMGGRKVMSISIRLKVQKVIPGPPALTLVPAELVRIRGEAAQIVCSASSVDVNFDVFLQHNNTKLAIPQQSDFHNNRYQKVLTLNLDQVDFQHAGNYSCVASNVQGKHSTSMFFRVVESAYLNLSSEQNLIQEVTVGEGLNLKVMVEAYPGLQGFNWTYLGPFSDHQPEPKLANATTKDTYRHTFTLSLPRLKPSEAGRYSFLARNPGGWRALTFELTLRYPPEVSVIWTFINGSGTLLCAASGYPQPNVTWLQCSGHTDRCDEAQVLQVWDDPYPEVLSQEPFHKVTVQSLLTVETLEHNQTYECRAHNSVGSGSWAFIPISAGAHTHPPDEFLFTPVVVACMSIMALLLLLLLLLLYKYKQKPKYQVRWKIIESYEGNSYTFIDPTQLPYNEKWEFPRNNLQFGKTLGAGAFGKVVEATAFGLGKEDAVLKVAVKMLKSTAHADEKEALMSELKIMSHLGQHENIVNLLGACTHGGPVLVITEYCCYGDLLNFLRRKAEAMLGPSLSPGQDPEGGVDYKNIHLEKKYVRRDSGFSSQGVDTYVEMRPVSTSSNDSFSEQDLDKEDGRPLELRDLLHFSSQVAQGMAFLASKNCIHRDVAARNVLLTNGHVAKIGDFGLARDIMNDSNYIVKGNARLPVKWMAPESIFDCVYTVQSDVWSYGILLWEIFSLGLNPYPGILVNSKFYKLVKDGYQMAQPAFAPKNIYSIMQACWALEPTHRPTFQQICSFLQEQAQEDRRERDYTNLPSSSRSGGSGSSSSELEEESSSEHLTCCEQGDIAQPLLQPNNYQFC
Kind of test: Competition binding assay, CSF-1R Kd. In short, it runs like this:
as §1

A further test concerns MV4-11 cells. Kind of test: MV4-11 cell proliferation assay (Alamar Blue). It counts as cell-based. Conditions: Homo sapiens, MV4-11, 72 h, 3 days incubation. In short, it runs like this:
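Flt3-ITD MV4-11 cells were serum-starved overnight in Iscove's with 0.5% FBS, then given compound at 9 half-log concentrations (0.5% DMSO) for 3 days at 37° C. Alamar Blue reduction was read after 3 h by fluorescence (560/590 nm). IC50 is the mean of duplicates versus negative control.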

For test [1], the target named is kinase panel containing either 359 or 386 distinct kinases. Kind of test: Selectivity score S10 from competition binding against a panel of kinases. Conditions: compounds at 10 μM; for Kinase specificty: S(10)-359 panel: panel of 359 distinct kinases. The protocol:
Competition binding assays used herein were developed, validated and performed as described in Fabian et al., Nature Biotechnology 2005, 23,329-336. Kinases were produced as fusions to T7 phage (See, Fabian et al. or WO04/015142) or alternatively, the kinases were expressed in HEK-293 cells and subsequently tagged with DNA for PCR detection (See, WO08/005,310). For the binding assays, streptavidin-coated magnetic beads were treated with biotinylated affinity ligands for 30 min at room temperature to generate affinity resins. The liganded beads were blocked with excess biotin and washed with blocking buffer (SeaBlock (Pierce), 1% BSA, 0.05% Tween 20, 1 mM DTT) to remove unbound ligand and to reduce non-specific binding. Binding reactions were assembled by combining kinase, liganded affinity beads, and test compounds in 1× binding buffer (20% SeaBlock, 0.17×PBS, 0.05% Tween 20, 6 mM DTT). Test compounds were prepared as 100× stocks in DMSO and diluted into the aqueous environment. Kds were determined using an eleven point threefold serial dilutions. DMSO or control compounds were was added to control assays lacking a test compound. Primary screen assays were performed in polypropylene 384-well plates in a final volume of 20-40 μL, while Kd determinations were performed in polystyrene 96-well plates in a final volume of 135 μL. The assay plates were incubated at room temperature with shaking for 1 hour to allow the binding reactions to reach equilibrium, and the affinity beads were washed extensively with wash buffer (1×PBS, 0.05% Tween 20) to remove unbound protein. The beads were then resuspended in elution buffer (1×PBS, 0.05% Tween 20, 0.5 μM non-biotinylated affinity ligand) and incubated at room temperature with shaking for 30 min. The kinase concentration in the eluates was measured by quantitative PCR.
A selectivity score (S10) is a quantitative measure of selectivity of a compound against a panel of kinases. An S10 was calculated for a compound by dividing the number of kinases found to have a percent of control (DMSO) less than 10 by the total number of distinct kinases tested (excluding mutant variants). Percent of control (POC) is calculated by subtracting the signal of the control compound (POC=0) from the signal of the test compound and dividing the outcome by the signal of DMSO (POC=100) minus the signal of the control compound. For the compounds disclosed herein, S10 scores were obtained by testing the compounds at 10 μM concentration in a kinase panel containing either 359 or 386 distinct kinases.

Consider `CC(C)(C)c1cc(NC(=O)Nc2ccc(-c3cnc(NCCN4CCOCC4)c(C#N)c3)cc2)no1` [Example 6, 1-(5-tert-butylisoxazol-3-yl)-3-(4-(5-cyano-6-(2-morpholinoethylamino)pyridin-3-yl)phenyl)urea], for which the Kd lay in the range of 0.001 to 0.01 µM on FLT3 kinase, 0.001 to 0.01 µM on KIT kinase and 0.01 to 0.1 µM at CSF-1R kinase. Also, in the test on MV4-11 cells, the 50% inhibitory concentration (IC50) lay within 0.001 to 0.01 µM. In addition, in test [1], the “Kinase specificty: S(10)-359 panel” value is given as “A (A≦0.1)”.
Regarding `CC(C)(C)c1cc(NC(=O)Nc2ccc(-c3ccc(NCCN4CCOCC4)nc3)cc2)no1` [Example 7, 1-(5-tert-butyl-isoxazol-3-yl)-3-{4-[6-(2-morpholin-4-yl-ethylamino)-pyridin-3-yl]-phenyl}urea], the Kd on FLT3 kinase was not above 0.001 µM; at KIT kinase, not above 0.001 µM; on CSF-1R kinase it was not above 0.01 µM. Besides, the IC50 in the test on MV4-11 cells was 0.001 to 0.01 µM. For the same compound, the “Kinase specificty: S(10)-359 panel” value in test [1] is “A (A≦0.1)”.
Consider `CC(C)(C)c1cc(NC(=O)Nc2ccc(-c3cnc(N)c(CO)c3)cc2)no1` [Example 8, 1-(4-(6-amino-5-(hydroxymethyl)pyridin-3-yl)phenyl)-3-(5-tert-butylisoxazol-3-yl)urea], for which the Kd at FLT3 kinase is 0.001 to 0.01 µM; at KIT kinase, 0.001 to 0.01 µM; at CSF-1R kinase, not above 0.01 µM. Moreover, in the test with MV4-11 cells, the IC50 is more than 0.5 µM. Besides, the “Kinase specificty: S(10)-359 panel” value in test [1] is on record as “A (A≦0.1)”.
Consider `CC(C)(C)c1cc(NC(=O)Nc2ccc(-c3cnc4c(c3)CCC(=O)N4)cc2)no1` [Example 9, 1-(5-tert-butylisoxazol-3-yl)-3-(4-(7-oxo-5,6,7,8-tetrahydro-1,8-naphthyridin-3-yl)phenyl)urea], for which the Kd on FLT3 kinase is 0.001 to 0.01 µM; on KIT kinase, 0.001 to 0.01 µM; on CSF-1R kinase, not above 0.01 µM. The compound further returned an IC50 in the test with MV4-11 cells of 0.01 to 0.1 µM. Moreover, the “Kinase specificty: S(10)-359 panel” value in test [1] is recorded as “A (A≦0.1)”.
Take `Cc1cc(N)nc(C)c1-c1ccc(NC(=O)Nc2cc(C(C)(C)C)on2)cc1` [Example 10, 1-(4-(6-amino-2,4-dimethylpyridin-3-yl)phenyl)-3-(5-tert-butylisoxazol-3-yl)urea]: the dissociation constant Kd on FLT3 kinase is 0.001 to 0.01 µM; on KIT kinase, 0.001 to 0.01 µM; on CSF-1R kinase it was not above 0.01 µM. Further, in the test on MV4-11 cells, the IC50 fell in the range of 0.1 to 0.5 µM. Besides, in test [1], the “Kinase specificty: S(10)-359 panel” value was “A (A≦0.1)”.
On to `CC(C)(C)c1cc(NC(=O)Nc2ccc(-c3ccc(N)nc3)c(F)c2)no1` [Example 11, 1-(4-(6-aminopyridin-3-yl)-3-fluorophenyl)-3-(5-tert-butylisoxazol-3-yl)urea], for which the Kd is not above 0.001 µM on FLT3 kinase, 0.001 to 0.01 µM at KIT kinase and not above 0.01 µM on CSF-1R kinase. Also, the IC50 with MV4-11 cells lay within 0.001 to 0.01 µM. Moreover, in test [1], the “Kinase specificty: S(10)-359 panel” value is on record as “A (A≦0.1)”.
`CC(C)(C)c1cc(NC(=O)Nc2ccc(-c3cnc4c(c3)CCCN4)cc2)no1` [Example 12, 1-(5-tert-butylisoxazol-3-yl)-3-(4-(5,6,7,8-tetrahydro-1,8-naphthyridin-3-yl)phenyl)urea]: the Kd on FLT3 kinase is 0.001 to 0.01 µM; on KIT kinase it was 0.001 to 0.01 µM; on CSF-1R kinase, not above 0.01 µM. The IC50 in the test with MV4-11 cells was 0.001 to 0.01 µM. The “Kinase specificty: S(10)-359 panel” value in test [1] is on record as “A (A≦0.1)”.
As for `CC(C)(C)c1cc(NC(=O)Nc2ccc(-c3cnc(N)c(CN4CCOCC4)c3)cc2)no1` [Example 13, 1-(4-(6-amino-5-(morpholinomethyl)pyridin-3-yl)phenyl)-3-(5-tert-butylisoxazol-3-yl)urea], the Kd at FLT3 kinase is 0.001 to 0.01 µM; on KIT kinase, 0.001 to 0.01 µM; at CSF-1R kinase, 0.01 to 0.1 µM. Moreover, the half-maximal inhibitory concentration (IC50) with MV4-11 cells was 0.01 to 0.1 µM. Moreover, in test [1], the “Kinase specificty: S(10)-359 panel” value is listed as “B (0.1<B≦0.2 nM)”.
Consider `CC(C)(C)c1cc(NC(=O)Nc2ccc(-c3ccc(N)nc3)cc2F)no1` [Example 14, 1-[4-(6-aminopyridin-3-yl)-2-fluorophenyl]-3-(5-tert-butylisoxazol-3-yl)-urea], for which the Kd on FLT3 kinase is not above 0.001 µM; on KIT kinase, not above 0.001 µM; on CSF-1R kinase, not above 0.01 µM. This compound yielded an IC50 in the test with MV4-11 cells not above 0.001 µM. Further, the “Kinase specificty: S(10)-359 panel” value in test [1] is listed as “B (0.1<B≦0.2 nM)”.
On to `CC(C)(C)c1cc(NC(=O)Nc2ccc(-c3ccc(N)nc3)cc2Cl)no1` [Example 15, 1-(4-(6-aminopyridin-3-yl)-2-chlorophenyl)-3-(5-tert-butylisoxazol-3-yl)urea], for which the Kd lay in the range of 0.001 to 0.01 µM at FLT3 kinase, 0.001 to 0.01 µM at KIT kinase and 0.01 to 0.1 µM on CSF-1R kinase. The compound also registered an IC50 in the test with MV4-11 cells of 0.01 to 0.1 µM. Moreover, the “Kinase specificty: S(10)-359 panel” value in test [1] is “B (0.1<B≦0.2 nM)”.
Regarding `CC(C)(C)c1cc(NC(=O)Nc2ccc(-c3ccc(N)nc3)c(Cl)c2)no1` [Example 16, 1-(4-(6-aminopyridin-3-yl)-3-chlorophenyl)-3-(5-tert-butylisoxazol-3-yl)urea], the Kd is not above 0.001 µM on FLT3 kinase, not above 0.001 µM on KIT kinase and 0.01 to 0.1 µM at CSF-1R kinase. In addition, in the test with MV4-11 cells, the IC50 was in the range of 0.001 to 0.01 µM. The “Kinase specificty: S(10)-359 panel” value in test [1] is listed as “B (0.1<B≦0.2 nM)”.
In the case of `CC(C)(C)c1cc(NC(=O)Nc2ccc(-c3ccc(N)nc3)cn2)no1` [Example 17, 1-(6′-amino-[3,3′]bipyridinyl-6-yl)-3-(5-tert-butylisoxazol-3-yl)urea], the results for the Kd at FLT3 kinase, on KIT kinase and on CSF-1R kinase were not above 0.001 µM, not above 0.001 µM and not above 0.01 µM, respectively. Also, the IC50 in the test with MV4-11 cells was 0.001 to 0.01 µM. Also, the “Kinase specificty: S(10)-359 panel” value in test [1] is recorded as “A (A≦0.1)”.
As for `CC(C)(C)c1cc(NC(=O)Cc2ccc(-c3ccc(N)nc3)cc2)no1` [Example 18, 2-(4-(6-aminopyridin-3-yl)phenyl)-N-(5-tert-butylisoxazol-3-yl)acetamide], the dissociation constant (Kd) is ≤ 0.001 µM and 0.001 to 0.01 µM at FLT3 kinase; 0.001 to 0.01 µM at KIT kinase; not above 0.01 µM at CSF-1R kinase. Also, the IC50 in the test on MV4-11 cells is not above 0.001 µM. The “Kinase specificty: S(10)-359 panel” value in test [1] was “A (A≦0.1)”. In addition, the “Kinase specificty: S(10)-386 panel” value in test [1] (panel of 386 distinct kinases) was “A (A≦0.1)”.
`CC(C)(C)c1cc(NC(=O)Nc2ccc(-c3ccc(N)nc3)s2)no1` [Example 19, 1-(5-(6-aminopyridin-3-yl)thiophen-2-yl)-3-(5-tert-butylisoxazol-3-yl)urea]: the results for the Kd at FLT3 kinase, at KIT kinase and on CSF-1R kinase were 0.001 to 0.01 µM, 0.001 to 0.01 µM and 0.01 to 0.1 µM, respectively. Also, the IC50 with MV4-11 cells was more than 0.5 µM. The “Kinase specificty: S(10)-359 panel” value in test [1] is “A (A≦0.1)”.
